A short description of data set [1]: Metabolic stability in mouse liver microsomes. The format is in vitro ADME. The following applies: mouse liver microsomes (MLM). In general terms: Liver microsomes are vesicles of endoplasmic reticulum, rich in cytochrome P450 enzymes.
Another data set deals with CYP3A4 (Homo sapiens, UniProt P08684). Put plainly: Cytochrome P450 inhibition, CYP3A4. The format is in vitro ADME. As to the method:
(§1) Cytochrome P450 (CYP) inhibitory potency was determined by industrial standard methods as reported previously ([Dong et al., 2015]). Methods to determine potassium channel hERG inhibition and in vivo pharmacokinetic parameters have been previously published ([Lu et al., 2017]).

The test system of data set [2] is phosphorylation of RIPK1, RIPK3, and MLKL. In words: Western blot of phosphorylation of RIPK1, RIPK3 and MLKL in HT-29 cells upon necroptotic stimuli. The data set is classed as cell-based, human. The following applies: 2 h pretreatment, TNF-α/Smac mimetic/z-VAD 8 h. On the procedure:
The cell pellets were harvested and dissolved in lysis buffer (20 mM Tris–HCl, pH 7.4 150 mM NaCl, 1% Triton X-100, 1 mM Na3VO4, 10% glycerol, 25 mM β-glycerol-phosphate, 0.1 mM PMSF, with the Sigma phosphatase inhibitors and the Roche Pierce protease inhibitor set). The re-suspended cell pellet was then incubated on ice for 20 min, followed by centrifugation at 13000 × g for 20 min at 4°C. The supernatants were collected and protein concentrations were measured using the BCA Protein Assay Kit (Thermo Fisher Scientifc, United States). Finally, cell lysates were subjected for western-blot analysis of the indicated antibodies.
Cell lysates were prepared for immunoprecipitation using an anti-Flag antibody. The levels of RIPK3 and RIPK1 in the immunocomplex were determined by western blot analysis.

The next data set deals with HeLa-MLKL (1–190) cells. In words: MLKL polymerization-induced necroptosis in HeLa-MLKL (1-190) cells (AP20187). The data set is classed as cell-based, human. Conditions: doxycycline 1 μg/ml 24 h, 2 h pretreatment, AP20187 60 nM 24 h. An excerpt:
(§2) Human colon cancer HT-29 and mouse fibrosarcoma L929 cells were from ATCC. Mouse embryonic fibroblasts (MEF), HT-29 cells stably expressing RIPK3-shRNA and shRNA resistant scramble Flag-tagged RIPK3 (W46), and NIH3T3 cell line stably expressing RIPK3 fused to mutant FK506-binding protein (NIH3T3-RIPK3) were kindly provided by Dr. Xiaodong Wang [National Institute of Biological Sciences (NIBS), Beijing]. HeLa-MLKL (1-190) cell line was a gift from Dr. Zhigao Wang (University of Texas Southwestern Medical Center at Dallas). These cells were cultured in Dulbecco’s modified Eagle’s medium (Hyclone) supplemeted with 10% fetal bovine serum (Invitrogen) and 2 mM L-glutamine (Invitrogen) in a humidified incubator at 37°C and 5% CO2. […]
(§3) Cells were seeded in 96-well plates and then treated as indicated. The cell viability was determined by assessment of ATP levels using the CellTiter-Glo Luminescent Cell Viability Assay kit following the manufacture’s instructions (Promega). Luminescence was calculated with SpectraMax i3x (Molecular Devices).
In vitro kinase activity assays using recombinant RIPK3 and RIPK1 were performed as described in the section “Materials and Methods.” Data represent mean value ± standard deviation. […] Cell viability was determined by measuring ATP levels. […] Cell viability was determined by measuring ATP levels. […]

In a further data set the test system is HSV-1 ICP6. Put plainly: Expression of viral gene ICP6 after HSV-1 infection of L929 cells (real-time PCR). The format is cell-based, herpes simplex virus (HSV)-1. The following applies: culture supernatants 5 h post HSV-1 infection. On the procedure:
Total RNA was extracted using TRIzol Reagent (Invitrogen) from cell pellets. cDNA was synthesized using a Revert Aid First Strand cDNA kit (Thermo Fisher Scientifc). Real-time PCR was performed using corresponding primers and Power SYBR® Green PCR Master Mix (Invitrogen). The data were normalized to GAPDH. The primer sequences are as follows: ICP6 Forward: […] , Reverse: GGT […]; TNFα Forward: […] , Reverse: […]; CCL3 Forward: […] , Reverse: […]; CXCL1 Forward: GCACCC […] , Reverse: […] CAGA; GAPDH Forward: […] , Reverse: […] .
Cell viability was determined by measuring ATP levels. L, LPS; Z, z-VAD. […] After 5 h, cell viability was determined by measuring ATP levels and ICP6 mRNA expression was detected using viral genome extracted from cell culture supernatant. *P < 0.05. **P < 0.01. ***P < 0.001.
(In general: Real-time PCR tracks product formation cycle by cycle.)

In data set [3] the test system is rat bone marrow derived macrophages. In words: TLR4-mediated necroptosis induced by LPS/z-VAD in rat bone marrow-derived macrophages. The format is cell-based. Conditions: rat BMDM; 2 h pretreatment, LPS 20 ng/ml plus z-VAD for 24 h.
Description: as §2, with “CO2. NIH3T3-RIPK3 was cultured in complete medium containing […] G418 (Calbiochem).” for “CO2.”
as §3
Cell viability was determined by measuring ATP levels. […] After 5 h, cell viability was determined by measuring ATP levels and ICP6 mRNA expression was detected using viral genome extracted from cell culture supernatant. *P < 0.05. **P < 0.01. ***P < 0.001.

The target in a further data set is CYP2C9 (Homo sapiens, UniProt P11712). Put plainly: Cytochrome P450 inhibition, CYP2C9. The format is in vitro ADME. On the procedure: as §1
A short description of data set [4]: Metabolic stability in human liver microsomes. The data set is classed as in vitro ADME. An excerpt: Encouraged by the in vitro and in vivo efficacy data, we sought to evaluate the preliminary drugability profile of Zharp-99.
(C) Pharmacokinetic parameters of Zharp-99 determined in male ICR mouse.

The target of another data set is T1, human RIPK3 (Homo sapiens, UniProt Q9Y572).
T1 construct: purchased SignalChem
Put plainly: In vitro kinase activity assay (ADP-Glo), RIPK3. Conditions: ATP 50 μM, MBP 20 μM; compared to GSK’872. The data set is classed as biochemical. On the procedure:
The recombinant human RIPK1 or RIPK3 protein was incubated with the control DMSO or the indicated compound for around 15 min in the assay buffer (25 mM HEPES PH7.2, 12.5 mM MnCl2, 5 mM EGTA, 20 mM MgCl2, 12.5 mM β-glycerol phosphate, 2 mM EDTA, and 2 mM DTT). ATP (50 μM) and the substrate MBP (20 μM) were then added to the reaction at room temperature for 2 h. The kinase activity was calculated by the measuring the luminescence after the addition of the ADP-Glo Kinase Assay kit according to the manufacture’s instructions (Promega).
In vitro kinase activity assays using recombinant RIPK3 and RIPK1 were performed as described in the section “Materials and Methods.” Data represent mean value ± standard deviation. […] NIH3T3-RIPK3 cells were pretreated with indicated compounds for 2 h and subsequently treated with AP20187 (60 nM) for 24 h. Cell viability was determined by measuring ATP levels. […] HeLa-MLKL (1–190) cells were induced by doxycycline (1 μg/ml) for 24 h. Cells were pretreated with indicated compounds for 2 h and subsequently treated with AP20187 (60nM) for 24h. Cell viability was determined by measuring ATP levels. […] (F) MEFs were treated as indicated for 3 h. Cell lysates were harvest and subjected to western-blot analysis for full length and cleaved caspase 3.

CYP3A4, sequence (P08684 whole entry): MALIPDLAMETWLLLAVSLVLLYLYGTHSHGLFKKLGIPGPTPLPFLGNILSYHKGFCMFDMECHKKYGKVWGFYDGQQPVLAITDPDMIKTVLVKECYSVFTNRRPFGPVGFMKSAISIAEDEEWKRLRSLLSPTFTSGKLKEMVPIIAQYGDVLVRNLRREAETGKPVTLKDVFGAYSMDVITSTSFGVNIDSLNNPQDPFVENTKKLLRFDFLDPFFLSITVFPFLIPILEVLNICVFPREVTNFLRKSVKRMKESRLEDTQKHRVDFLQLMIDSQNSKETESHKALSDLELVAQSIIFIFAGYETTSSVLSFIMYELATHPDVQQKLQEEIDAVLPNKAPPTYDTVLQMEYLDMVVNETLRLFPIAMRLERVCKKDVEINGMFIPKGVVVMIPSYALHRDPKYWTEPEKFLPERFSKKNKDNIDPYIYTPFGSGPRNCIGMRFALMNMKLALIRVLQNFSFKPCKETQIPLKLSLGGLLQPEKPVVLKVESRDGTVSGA
CYP2C9, sequence (P11712 whole entry): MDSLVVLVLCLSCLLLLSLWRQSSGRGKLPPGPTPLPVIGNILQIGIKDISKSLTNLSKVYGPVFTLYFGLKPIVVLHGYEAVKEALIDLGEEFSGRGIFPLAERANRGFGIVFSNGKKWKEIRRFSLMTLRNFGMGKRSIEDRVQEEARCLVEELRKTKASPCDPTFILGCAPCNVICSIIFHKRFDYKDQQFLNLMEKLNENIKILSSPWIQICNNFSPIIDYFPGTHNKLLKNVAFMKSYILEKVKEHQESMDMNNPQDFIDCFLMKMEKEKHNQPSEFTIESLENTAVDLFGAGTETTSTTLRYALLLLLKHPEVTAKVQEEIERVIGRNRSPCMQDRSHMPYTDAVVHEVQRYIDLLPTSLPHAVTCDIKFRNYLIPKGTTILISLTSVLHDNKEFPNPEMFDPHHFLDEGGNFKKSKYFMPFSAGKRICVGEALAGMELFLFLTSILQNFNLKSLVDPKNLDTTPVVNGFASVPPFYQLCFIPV
T1 sequence (Q9Y572 whole entry): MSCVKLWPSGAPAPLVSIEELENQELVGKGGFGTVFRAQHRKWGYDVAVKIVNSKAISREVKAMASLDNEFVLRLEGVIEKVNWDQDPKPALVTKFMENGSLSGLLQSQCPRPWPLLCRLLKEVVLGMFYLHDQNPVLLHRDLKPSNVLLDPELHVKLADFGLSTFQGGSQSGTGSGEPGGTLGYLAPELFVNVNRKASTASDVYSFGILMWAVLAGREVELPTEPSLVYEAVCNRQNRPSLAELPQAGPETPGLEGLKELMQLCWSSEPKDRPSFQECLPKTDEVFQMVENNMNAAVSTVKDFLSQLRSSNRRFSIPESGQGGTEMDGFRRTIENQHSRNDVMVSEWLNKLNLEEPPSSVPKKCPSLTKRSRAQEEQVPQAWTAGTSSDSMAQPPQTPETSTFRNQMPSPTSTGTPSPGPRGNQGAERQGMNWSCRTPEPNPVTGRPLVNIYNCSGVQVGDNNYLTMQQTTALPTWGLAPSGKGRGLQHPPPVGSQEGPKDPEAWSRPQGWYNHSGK

For the molecule `O=S1(=O)C=C(C2CC2)c2cc3nccc(Nc4ccc5scnc5c4)c3cc21` [Zharp-99], the half-life in [1] turned out to be 26 min. For the same molecule, at CYP3A4 (10 μM), the “% of CYP inhibiton CYP3A4” value is “did not inhibit”. Besides, the inhibition at 10 µM on CYP3A4 (human, read-out: % of CYP inhibiton CYP3A4) came out at 5.04%. Further, in [2], the “RIPK1 phosphorylation at S166” value is recorded as “did not reduce”, the “phosphorylation of MLKL” value was “abolished” and the “phosphorylation of RIPK3” value is reported as “abolished”. Also, the “polymerized MLKL-induced necroptosis” value in the data set on HeLa-MLKL (1–190) cells was “did not affect”. Also, the “effect on expression of viral gene ICP6” value with HSV-1 ICP6 is reported as “did not affect”. For the same molecule, the “inhibition of TLR4-mediated necroptosis induced by LPS/z-VAD” value in data set [3] is on record as “potently blocked”. Also, at CYP2C9 (10 μM), the “% of CYP inhibiton 2C9” value was “did not inhibit”. Further, the inhibition at 10 µM at CYP2C9 (human, read-out: % of CYP inhibiton 2C9) was -5.59%. Moreover, in [4], the CLint scaled was 63 mL/min/kg, the Clint entry is listed as “moderate” and the half-life was 28 min. For the same molecule, on human RIPK3, the “inhibition of the kinase activity of human RIPK3 in vitro” value is reported as “higher inhibitory activity compared to GSK’872”.

By half-life is commonly meant how long it takes for the measured level to halve. Lower therefore signals rapid decline. As usually defined, the CLint scaled is the rate of metabolic loss divided by the concentration.

The values are drawn from PMC7753040, “Discovery of a Potent RIPK3 Inhibitor for the Amelioration of Necroptosis-Associated Inflammatory Injury” (Frontiers in Cell and Developmental Biology, 2020).
